Consider one molecule from patent US7872133B2, “Tricyclic heterocycle compound” (Ono Pharmaceutical Co., Ltd., priority 2003, dated 2011).

One assay deals with T1, MBR (Rattus norvegicus, UniProt P16257).
T1 construct: from tissue; host or cells: whole brain without cerebellum of male Wistar rats, crude membrane preparation
Briefly: Receptor Binding Experiment (competition with [3H]PK11195). The conditions noted are these: rat brain membrane preparation, [3H]PK11195 as MBR selective ligand; Ki by Cheng and Prusoff formula. The protocol: The affinity of the compounds in the present invention to MBR was determined using rat brain membrane preparation. In addition, the measurement in the present invention was improved the accuracy of measurement and the sensitivity of measurement for evaluating the compounds in the present invention as follows. After male Wister rats were decapitated to extirpate the whole brain and cerebellums were removed. They were homogenized in ice-cold 50 mmol/L Tris-HCL buffer solution (pH7.4), centrifuged and the obtained pellets were washed. The pellets resuspended and adjusted to about 1 mg/mL were used as rat brain membrane preparations for binding assay. The binding assay were experimented using [^3H]PK11195 as a MBR selective ligand. […]
To determine the amount of total binding in saturation binding experiment, membrane preparations, various concentrations of [^3H]PK11195, final concentration: 0.5 vol % dimethylsulfoxide (DMSO) and 50 mmol/L Tris-HCL buffer solution (pH7.4) were mixed (total volume 200 μL) and were incubated for 1 hour at room temperature. […] The filter was dried and then the radioactivity on the filter was measured by liquid scintillation counter. The data obtained by the binding experiments were Scatchard-analyzed using analysis software, KELL (Ver. 6, BIOSOFT) and the dissociation constant (KD value) was determined. […]

For the next assay, the system named is male Wistar rats. Put plainly: Evaluation of Anti-Stress Effects (psychological stress, number of defecation). The conditions noted are these: 10 mg/kg orally 30 minutes before stressor; counted 1 hour later; media treated group average 8.0 feces. In kind it is in vivo, rat. As for the experimental part: Psychological stress was loaded to male Wistar rats (Brain Research, 641, 21-28, 1994). Water was stored up to the depth of about 10 cm in a container where the platform was set at the center. A stressor began to load to rats 30 minutes after the vehicle or the compound in the present invention (the compound of Example 17) were orally administered by dosage of 10 mg/kg. The number of defecation was counted 1 hour later (10 per each group). Rats without administration and load of stressor rarely defecated for 1 hour. In contrast, remarkable defecation was admitted in media treated group (average 8.0 feces) loaded by stressor. […] The results clarified that the compounds in the present invention had anti-stress effects.

One may read the Ki as the dissociation constant of the complex between target and ligand, obtained from inhibition or displacement. A lower Ki goes with a stronger hold on the target. `CC(=O)N1CC2(CC2)c2c([nH]c3ccccc23)C1c1cccc(F)c1` (stereo not drawn) [Example 17, 2-acetyl-1-(3-fluorophenyl)-1,2,3,9-tetrahydrospiro[β-carboline-4,1′-cyclopropane]] registered a Ki at MBR of 21 nM. The “number of defecation (average)” value in the assay on male Wistar rats is on record as 5.4 feces.
